The subject of one assay is pigweed. Nature of the assay: Test F preemergence. Particulars: 21 days, scale 0 to 100. The class given is in vivo, Amaranthus retroflexus. The text has this:
Seeds of plant species selected from bermudagrass (Cynodon dactylon), surinam grass (Brachiaria decumbens), large (Lg) crabgrass (Digitaria sanguinalis), crabgrass, naked (naked crabgrass, Digitaria nuda), foxtail, green (green foxtail, Setaria viridis), johnsongrass (Sorghum halepense), kochia (Kochia scoparia), morningglory (pitted morningglory, Ipomoea lacunosa), nutsedge, purple (purple nutsedge, Cyperus rotundus), ragweed (common ragweed, Ambrosia elatior), mustard, black (black mustard, Brassica nigra), guineagrass (Panicum maximum), dallisgrass (Paspalum dilatatum), barnyardgrass (Echinochloa crus-galli), sandbur (southern sandbur, Cenchrus echinatus), sowthistle (common sowthistle, Sonchus oleraceous), Italian ryegrass (Lolium multiflorum), signalgrass (broadleaf signalgrass, Brachiaria platyphylla), dayflower (Virginia (VA) dayflower, Commelina virginica), bluegrass (annual bluegrass, Poa annua), quackgrass (Elytrigia repens), mallow (common mallow, Malva sylvestris), buckwheat, wild (wild buckwheat, Polygonum convolvulus), leafy spurge (Euphorbia esula), chickweed (common chickweed, Stellaria media), wild poinsettia (Euphorbia heterophylla), and pigweed (Amaranthus retroflexus) were planted into a blend of loam soil and sand and treated preemergence with test chemicals formulated in a non-phytotoxic solvent mixture which included a surfactant.
Treated plants and controls were maintained in a greenhouse for 21 days, after which time all species were compared to controls and visually evaluated. Plant response ratings, summarized in Table F, are based on a scale of 0 to 100 where 0 is no effect and 100 is complete control. A dash (-) response means no test result.

For another assay, the system named is wild radish. Description: Test D postemergence. In kind it is in vivo, Raphanus raphanistrum. Particulars: Raphanus raphanistrum, post-emergence. The text has this:
(§1) Seeds of plant species selected from bluegrass (annual bluegrass, Poa annua), blackgrass (Alopecurus myosuroides), canarygrass (littleseed canarygrass, Phalaris minor), chickweed (common chickweed, Stellaria media), galium (catchweed bedstraw, Galium aparine), bromegrass, downy (downy bromegrass, Bromus tectorum), field poppy (Papaver rhoeas), field violet (Viola arvensis), green foxtail (Setaria viridis), deadnettle (henbit deadnettle, Lamium amplexicaule), Italian ryegrass (Lolium multiflorum), kochia (Kochia scoparia), lambsquarters (Chenopodium album), oilseed rape (Brassica napus), pigweed (Amaranthus retroflexus), chamomile (scentless chamomile, Matricaria inodora), Russian thistle (Salsola kali), speedwell (bird's-eye speedwell, Veronica persica), spring barley (Hordeum vulgare), spring wheat (Triticum aestivum), wild buckwheat (Polygonum convolvulus), wild mustard (Sinapis arvensis), wild oat (Avena fatua), wild radish (Raphanus raphanistrum), windgrass (Apera spica-venti), winter barley (Hordeum vulgare), and winter wheat (Triticum aestivum) were planted into a silt loam soil and treated preemergence with test chemicals formulated in a non-phytotoxic solvent mixture which included a surfactant.
(§2) At the same time, these species were planted in pots containing Redi-Earth® planting medium (Scotts Company, 14111 Scottslawn Road, Marysville, Ohio 43041) comprising spaghnum peat moss, vermiculite, wetting agent and starter nutrients and treated with postemergence applications of the test chemicals formulated in the same manner. Plants ranged in height from 2 to 18 cm (1- to 4-leaf stage). Treated plants and controls were maintained in a controlled growth environment for 7 to 21 days after which time all species were compared to controls and visually evaluated. Plant response ratings, summarized in Table D, are based on a scale of 0 to 100 where 0 is no effect and 100 is complete control. A dash (-) response means no test result.

In a further assay the test system is chamomile. Nature of the assay: Test D preemergence. The class given is in vivo, Matricaria inodora. Particulars: Tripleurospermum inodorum, pre-emergence.
Text: as §1, §2

A further assay deals with blackgrass. Nature of the assay: Test D postemergence. Particulars: Alopecurus myosuroides, post-emergence, Postemergence, scale 0 to 100 (0 no effect, 100 complete control), read-out: Plant response rating, Blackgrass. The class given is in vivo, Alopecurus myosuroides.
Text: as §1, §2

For assay [1], the system named is winter wheat. Nature of the assay: Test D postemergence. In kind it is in vivo, Triticum aestivum. Particulars: Triticum aestivum, post-emergence.
Text: as §1, §2

The test system of assay [2] is spring wheat. Nature of the assay: Test D postemergence. In kind it is in vivo, Triticum aestivum. Particulars: Triticum aestivum, post-emergence.
Text: as §1, §2

The subject of assay [3] is winter wheat. Nature of the assay: Test D preemergence. In kind it is in vivo, Triticum aestivum. Particulars: Triticum aestivum, pre-emergence.
Text: as §1, §2

In assay [4] the test system is spring wheat. Description: Test D preemergence. Particulars: Triticum aestivum, pre-emergence. In kind it is in vivo, Triticum aestivum.
Text: as §1, §2

A further assay has as its system chickweed. Description: Test D postemergence. Particulars: Stellaria media, post-emergence. The class given is in vivo, Stellaria media.
Text: as §1, §2

We go through three compounds from patent publication US9695155B2, “Herbicidal substituted pyrimidinyloxy benzene compounds” (E. I. DU PONT DE NEMOURS AND COMPANY, priority 2013, dated 2017).

Structures are written as SMILES.

Regarding `N#Cc1cccc(Oc2ncc(F)cn2)c1-n1cc(C(F)(F)F)cn1` [Compound 79, 3-[(5-fluoro-2-pyrimidinyl)oxy]-2-[4-(trifluoromethyl)-1H-pyrazol-1-yl]benzonitrile], the “Plant response rating, Pigweed” value with pigweed (16 g ai/ha), in the assay with pigweed (31 g ai/ha), in the assay with pigweed (62 g ai/ha), in the assay with pigweed (125 g ai/ha) and in the assay with pigweed (250 g ai/ha) was 100 throughout.
On to `Fc1cccc(Oc2ncc(Cl)cn2)c1-n1cc(C(F)F)nn1` [Compound 141, 5-chloro-2-[2-[4-(difluoromethyl)-1H-1,2,3-triazol-1-yl]-3-fluorophenoxy]pyrimidine], for which the pest or weed control at 16 g/ha turned out to be 90% in the assay with wild radish (16 g ai/ha, scale 0-100, read-out: Plant response rating, Radish, Wild); 90% with chamomile (16 g ai/ha, scale 0 (no effect) to 100 (complete control), read-out: Plant response rating, Chamomile); 10% with blackgrass (16 g ai/ha); 70% in the assay with chickweed (16 g ai/ha, scale 0-100, read-out: Plant response rating, Chickweed). Further, the pest or weed control at 31 g/ha worked out at 95% with wild radish (31 g ai/ha, scale 0 to 100 (0 no effect, 100 complete control), read-out: Plant response rating, Radish, Wild); 100% with chamomile (31 g ai/ha, scale 0-100, read-out: Plant response rating, Chamomile); 25% with blackgrass (31 g ai/ha); 90% in the assay with chickweed (31 g ai/ha, scale 0 to 100 (0 no effect, 100 complete control), read-out: Plant response rating, Chickweed). Further, the pest or weed control at 62 g/ha with wild radish (62 g ai/ha, scale 0 to 100 (0 no effect, 100 complete control), read-out: Plant response rating, Radish, Wild) turned out to be 100%; in the assay with chamomile (62 g ai/ha, scale 0-100, read-out: Plant response rating, Chamomile), 70%; in the assay with blackgrass (62 g ai/ha), 35%; with chickweed (62 g ai/ha, scale 0 to 100 (0 no effect, 100 complete control), read-out: Plant response rating, Chickweed) it was 95%. Besides, the pest or weed control at 125 g/ha in the assay with wild radish (125 g ai/ha, scale 0 to 100 (0 no effect, 100 complete control), read-out: Plant response rating, Radish, Wild) is 100%; with chamomile (125 g ai/ha, scale 0-100, read-out: Plant response rating, Chamomile) it was 100%; with blackgrass (125 g ai/ha) it was 55%; with chickweed (125 g ai/ha, scale 0 to 100 (0 no effect, 100 complete control), read-out: Plant response rating, Chickweed) it was 100%. Also, the plant injury at 16 g/ha was 5% in the assay on winter wheat [1] (16 g ai/ha, scale 0-100, read-out: Plant response rating, Wheat, Winter); 15% in the assay on spring wheat [2] (16 g ai/ha, scale 0-100, read-out: Plant response rating, Wheat, Spring); 15% in the assay with winter wheat [3] (16 g ai/ha, scale 0 (no effect) to 100 (complete control), read-out: Plant response rating, Wheat, Winter); 25% with spring wheat [4] (16 g ai/ha, scale 0 (no effect) to 100 (complete control), read-out: Plant response rating, Wheat, Spring). The plant injury at 31 g/ha amounted to 5% in the assay on winter wheat [1] (31 g ai/ha, scale 0 to 100 (0 no effect, 100 complete control), read-out: Plant response rating, Wheat, Winter); 20% in the assay on spring wheat [2] (31 g ai/ha, scale 0 to 100 (0 no effect, 100 complete control), read-out: Plant response rating, Wheat, Spring); 20% in the assay on winter wheat [3] (31 g ai/ha, scale 0 (no effect) to 100 (complete control), read-out: Plant response rating, Wheat, Winter); 30% with spring wheat [4] (31 g ai/ha, scale 0 (no effect) to 100 (complete control), read-out: Plant response rating, Wheat, Spring). In addition, the plant injury at 62 g/ha in the assay on winter wheat [1] (62 g ai/ha, scale 0 to 100 (0 no effect, 100 complete control), read-out: Plant response rating, Wheat, Winter) is 20%; with spring wheat [2] (62 g ai/ha, scale 0 to 100 (0 no effect, 100 complete control), read-out: Plant response rating, Wheat, Spring), 25%; with winter wheat [3] (62 g ai/ha, scale 0-100, read-out: Plant response rating, Wheat, Winter), 60%; in the assay on spring wheat [4] (62 g ai/ha, scale 0-100, read-out: Plant response rating, Wheat, Spring) it was 65%. In addition, the plant injury at 125 g/ha stood at 50% with winter wheat [1] (125 g ai/ha, scale 0 to 100 (0 no effect, 100 complete control), read-out: Plant response rating, Wheat, Winter); 35% in the assay on spring wheat [2] (125 g ai/ha, scale 0 to 100 (0 no effect, 100 complete control), read-out: Plant response rating, Wheat, Spring); 60% with winter wheat [3] (125 g ai/ha, scale 0-100, read-out: Plant response rating, Wheat, Winter); 75% in the assay with spring wheat [4] (125 g ai/ha, scale 0-100, read-out: Plant response rating, Wheat, Spring).
For the compound `N#Cc1cccc(Oc2ncc(Cl)cn2)c1-n1cc(OC(F)F)cn1` [Compound 97], the “Plant response rating, Pigweed” value in the assay with pigweed (16 g ai/ha), in the assay with pigweed (31 g ai/ha), with pigweed (62 g ai/ha), in the assay on pigweed (125 g ai/ha) and in the assay on pigweed (250 g ai/ha) was 100 throughout.
